Experimental data published in PubChem BioAssay AID1259348 (Broad Institute, 2017).
pIC50: −log10 of the molar value. Active and inactive are the calls of the source.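 Rule for the calls: active = any compound with an IC50 of 100 nM or lower; inactive = the rest.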

Target: Insulin-degrading enzyme (Homo sapiens) (UniProt P14735)
Experiment: IDE catalytic activity blockers, fluorogenic substrate – biochemical, kinetic mode, counter-screen for IDE exo-site inhibitor project, dose response (AID 1259348);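 for z-score: purified IDE bound to fluorescein-labelled 6b probe FL-6b at the exo-site; probe displacement lowers polarization so hits show a drop in FP signal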
Settings: purified human IDE, fluorogenic decapeptide proteolysis; for z-score: measured here: primary FP probe displacement screen, stronger effect = lower value

Chain of Insulin-degrading enzyme (Homo sapiens) (P14735 42-1019 limits assumed): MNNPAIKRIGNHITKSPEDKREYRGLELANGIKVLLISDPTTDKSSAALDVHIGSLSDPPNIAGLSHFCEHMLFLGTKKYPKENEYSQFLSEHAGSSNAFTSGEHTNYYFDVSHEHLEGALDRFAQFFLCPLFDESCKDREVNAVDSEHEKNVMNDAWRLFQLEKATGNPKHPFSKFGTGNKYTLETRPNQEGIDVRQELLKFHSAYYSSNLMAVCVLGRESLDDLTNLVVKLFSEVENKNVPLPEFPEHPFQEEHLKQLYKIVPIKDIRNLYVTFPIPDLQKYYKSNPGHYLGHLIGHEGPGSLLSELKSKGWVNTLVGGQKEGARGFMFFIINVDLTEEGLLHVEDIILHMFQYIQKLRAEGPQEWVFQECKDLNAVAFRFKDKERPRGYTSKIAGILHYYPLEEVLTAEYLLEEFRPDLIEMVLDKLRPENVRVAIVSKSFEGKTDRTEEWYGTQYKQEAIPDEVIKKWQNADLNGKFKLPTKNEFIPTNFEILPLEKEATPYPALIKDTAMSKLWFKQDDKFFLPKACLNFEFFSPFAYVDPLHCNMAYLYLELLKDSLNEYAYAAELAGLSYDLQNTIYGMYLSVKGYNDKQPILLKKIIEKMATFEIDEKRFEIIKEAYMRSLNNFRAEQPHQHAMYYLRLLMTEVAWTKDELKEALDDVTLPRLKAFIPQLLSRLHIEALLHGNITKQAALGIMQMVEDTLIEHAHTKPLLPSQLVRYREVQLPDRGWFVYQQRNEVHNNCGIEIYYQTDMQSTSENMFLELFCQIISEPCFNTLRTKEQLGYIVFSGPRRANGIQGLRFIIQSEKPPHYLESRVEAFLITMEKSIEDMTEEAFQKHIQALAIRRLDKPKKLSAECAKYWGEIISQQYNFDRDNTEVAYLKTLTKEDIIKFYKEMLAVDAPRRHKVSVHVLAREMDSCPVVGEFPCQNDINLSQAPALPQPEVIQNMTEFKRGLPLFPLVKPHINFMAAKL

Compound | pIC50 | z-score | IC50
COc1ccccc1-c1ccc([C@H]2[C@@H](CO)N[C@@H]2CNC(=O)C2CCCC2)cc1 | 5.29 | -10.9 | –
Cc1ccccc1-c1ccc([C@@H]2[C@@H](CO)N3CCCCN(C(=O)NC4CCCC4)C[C@H]23)cc1 | 5.44 | -14.5 | –
Cc1cccc(-c2ccc([C@H]3[C@H](CO)N4C(=O)CN(C(=O)NC5CCCCC5)C[C@@H]34)cc2)c1 | 5.49 | -16.3 | –
Cc1ccccc1-c1ccc([C@H]2[C@@H](CO)N3CCCCN(C(=O)CN4CCOCC4)C[C@@H]23)cc1 | 4.60 | 0.13 | –
CCS(=O)(=O)N1CCCCN2[C@@H](CO)[C@@H](c3ccc(C#Cc4ccccc4OC)cc3)[C@@H]2C1 | 5.74 | -19.7 | –
COc1ccccc1C#Cc1ccc([C@H]2[C@H]3CN(C(=O)C4CCC4)CCCCN3[C@H]2CO)cc1 | – | -17.5 | > 100 µM (inactive)
CN1C(=O)c2cc(NC(=O)Nc3ccccc3Cl)ccc2OC[C@H]2O[C@H](CC(=O)NCCCN3CCOCC3)CC[C@@H]21 | 5.77 | -14.2 | –
Cc1ccccc1-c1ccc(C2[C@@H]3CN(C(=O)c4cnccn4)C[C@H]2N3)cc1 (stereo partly specified) | 5.70 | -20 | –
Cc1cccc(-c2ccc([C@@H]3[C@@H](CO)N4CCCCN(S(=O)(=O)c5cccc(C)c5)C[C@@H]34)cc2)c1 | 6.00 | -9.77 | –
Cc1ccccc1-c1ccc(C2[C@@H]3CN(C(=O)Cc4ccncc4)C[C@H]2N3)cc1 (stereo partly specified) | 5.66 | -9.03 | –
CO[C@@H]1CN(C)C(=O)c2cc(NC(=O)c3ccc(Oc4ccccc4)cc3)ccc2OC[C@@H](C)NC[C@@H]1C | 5.62 | -11.5 | –
Cc1ccccc1-c1ccc([C@H]2[C@@H](CO)N3CCCCN(S(=O)(=O)c4ccc(F)cc4)C[C@@H]23)cc1 | 4.07 | 3.66 | –
COCC(=O)N1CCCCN2[C@H](CO)[C@@H](c3ccc(-c4cccc(C)c4)cc3)[C@@H]2C1 | 4.80 | -5.29 | –
Cc1cccc(-c2ccc([C@H]3[C@@H](CO)N4CCCCN(Cc5cccnc5)C[C@H]34)cc2)c1 | 4.97 | -6.79 | –
Cc1ccccc1-c1ccc([C@H]2[C@@H](CO)N3CCCCN(C(=O)c4cccnc4)C[C@H]23)cc1 | 5.51 | -16.5 | –
Cc1cccc(-c2ccc([C@@H]3[C@@H](CO)N4CCCCN(C(=O)NC(C)C)C[C@@H]34)cc2)c1 | 5.21 | -5.51 | –
COc1cccc(-c2ccc([C@@H]3[C@@H](CO)N4CCCCN(C(=O)Cc5ccncc5)C[C@@H]34)cc2)c1 | 4.83 | -2.33 | –

Compound | pIC50 | z-score | IC50
CCCNC(=O)N1CC(=O)N2[C@H](CO)[C@@H](c3ccc(-c4cccc(C)c4)cc3)[C@@H]2C1 | 6.11 | -22.4 | –
Cc1cccc(-c2ccc([C@@H]3[C@@H](CO)N4CCCCN(C(=O)c5ccncc5)C[C@@H]34)cc2)c1 | 4.78 | -3.14 | –
Cc1ccccc1-c1ccc([C@H]2[C@@H](CO)N3CCCCN(S(=O)(=O)Cc4ccccc4)C[C@@H]23)cc1 | 4.36 | -1.65 | –
Cc1cccc(-c2ccc([C@H]3[C@@H](CO)N4CCCCN(C(=O)c5ccncc5)C[C@H]34)cc2)c1 | 5.52 | -18.3 | –
Cc1ccccc1-c1ccc([C@@H]2[C@@H](CO)N3CCCCN(S(C)(=O)=O)C[C@@H]23)cc1 | 5.89 | -17.9 | –
Cc1cccc(-c2ccc([C@@H]3[C@H]4CN(C(=O)c5cccnc5)CCCCN4[C@H]3CO)cc2)c1 | 5.18 | -15.2 | –
O=C(NC1CCCC1)N1CC(=O)N2[C@H](CO)[C@@H](c3ccc(-c4cccnc4)cc3)[C@@H]2C1 | 4.85 | -12.2 | –
Cc1ccccc1-c1ccc([C@H]2[C@@H](CO)N3C(=O)CN(C(=O)Cc4ccccn4)C[C@@H]23)cc1 | 5.49 | -17.3 | –
CCC(=O)N1[C@H](CO)[C@H](c2ccc(-c3ccccc3OC)cc2)[C@@H]1CNC(C)=O | 5.24 | -15 | –
Cc1ccccc1-c1ccc([C@@H]2[C@H]3CN(C(=O)c4ccncc4)CC(=O)N3[C@H]2CO)cc1 | 5.38 | -13.6 | –
Cc1cccc(-c2ccc([C@@H]3[C@@H](CO)N4C(=O)CN(C(=O)Cc5ccccn5)C[C@@H]34)cc2)c1 | 5.48 | -11.8 | –
COc1ccccc1-c1ccc([C@H]2[C@H](C#N)N[C@@H]2CO)cc1 | 5.20 | -12 | –
COc1cccc(C#Cc2ccc([C@@H]3[C@H](CO)N4C(=O)CN(C(C)=O)C[C@@H]34)cc2)c1 | 5.43 | -15.3 | –
CO[C@H]1CN(C)C(=O)c2cc(NC(=O)c3ccc(Oc4ccccc4)cc3)ccc2OC[C@@H](C)NC[C@@H]1C | 5.54 | -13.2 | –
O=C(NC1CCCC1)N1CCCCN2[C@@H](CO)[C@H](c3ccc(/C=C/c4ccccc4)cc3)[C@@H]2C1 | 6.06 | -14.8 | –
Cc1cccc(-c2ccc([C@@H]3[C@@H](CO)N4C(=O)CN(C(=O)c5cnccn5)C[C@@H]34)cc2)c1 | 5.30 | -17.5 | –
